Key:
Ba/F3 EGFR del19 = assay: CellTiter-Glo cell viability, Ba/F3 EGFR del19; type: cell-based; details: 72 hours
Experimental: (§1) An experiment to measure the activity of the compounds of the present invention against the mutant Ba/F3 EGFR cell line was performed as follows using the CellTiter-Glo system sold by Promega. The CellTiter-Glo assay is a method to confirm the cell viability by measuring ATP present in cells in cell culture. For the Ba/F3 EGFR del19, Ba/F3 EGFR del19/T790M, Ba/F3 del19/T790M/C797S mutant cell line, a cell line provided by Crown Bioscience was purchased and used. The Ba/F3 EGFR del19, Ba/F3 EGFR del19/T790M, Ba/F3 del19/T790M/C797S mutant cell line was cultured in RPMI containing 10% FBS and 1% penicillin-streptomycin with 1 μg of puromycin in an incubator at 37° C. and 5% CO2.
(§2) Analysis of the inhibitory ability effect of the compounds against EGFR was conducted according to the following analysis reaction recipe.
(§3) 2500 cells/90 μL were passaged and cultured in a 96-well cell culture plate, and after 24 hours, treated with the compound represented by Formula 1 at a concentration of 0, 0.01, 0.03, 0.1, 0.3, 1, 3, and 10 (μM). After reaction for 72 hours, the plate treated with the compound was left at room temperature for 30 minutes, then further treated with 100 μl of reagent, and shaken at room temperature for 10 minutes. Finally, the ratio of fluorescence values at 570 nm was obtained using the equipment to quantitatively measure and confirmed the inhibitory ability of the compounds. The measurement values measured at eight compound concentrations were analyzed using the Prism program (version 5.01, Graphpad Software, Inc.), and the IC50 value, which is an indicator of the inhibitory ability of the compound, was calculated.

Ba/F3 EGFR L858R/T790M = assay: CellTiter-Glo cell viability, Ba/F3 EGFR L858R/T790M; type: cell-based; details: 72 hours
Experimental: (§4) An experiment to measure the activity of the compounds of the present invention against the mutant Ba/F3 EGFR cell line was performed as follows using the CellTiter-Glo system sold by Promega. The CellTiter-Glo assay is a method to confirm the cell viability by measuring ATP present in cells in cell culture. The Ba/F3 EGFR L858R, Ba/F3 EGFR L858R/T790M, Ba/F3 EGFR L858R/T790M/C797S mutant cell line was used. The Ba/F3 EGFR L858R, Ba/F3 EGFR L858R/T790M, and Ba/F3 EGFR L858R/T790M/C797S mutant cell lines was cultured in RPMI containing 10% FBS and 1% penicillin-streptomycin with 1 μg of puromycin in an incubator at 37° C. and 5% CO2.
as §2
as §3, with “μl” for “μL”

EGFR del19/T790M = EGFR del19/T790M (Homo sapiens (Human), UniProt P00533, DEL746-750/T790M); assay: HTRF enzyme assay, EGFR del19/T790M mutant enzyme; type: biochemical; details: recombinant enzyme, 37° C. 2 hours
Experimental: (§5) An experiment to measure the activity of the compounds of the present invention against EGFR mutant enzymes was performed as follows using the HTRF system sold by Cisbio. For the EGFR del19/T790M mutant enzyme, a recombinant protein provided by Carna Biosciences was purchased and used, and for the EGFR del19/T790M/C797S mutant enzyme, a protein provided by SignalChem was purchased and used as an enzyme source.
(§6) The composition of the assay buffer used for measuring the activity was 50 mM Tris-HCl pH 7.5, 100 mM NaCl, 7.5 mM MgCl2, 3 mM KCl, 0.01% Tween 20, 0.1% BSA, and 1 mM DTT. Here, an enzyme reaction was performed using ATP at a concentration of […] and a peptide substrate labeled with biotin at a concentration of […]. Analysis of the inhibitory effect of the compounds against the EGFR activity was conducted according to the following analysis reaction recipe. • Component 1: 4 μL of an EGFR mutant enzyme • Component 2: 2 μL of a compound solution • Component 3: 4 μL of ATP and a peptide labeled with biotin
(§7) The enzyme reaction was started by first mixing Component 1 and Component 2 and then adding Component 3. After reaction at 37° C. for 2 hours, […] of measurement solution consisting of streptavidin-XL665 and europium-labeled anti-phosphotyrosine antibody provided by Cisbio was added to the enzyme reaction solution and reacted at room temperature for 1 hour. Finally, the ratio of fluorescence values at 615 nm and 665 nm was obtained using the Envision equipment from Perkin-Elmer to quantitatively measure the enzyme activity and confirmed the inhibitory ability of the compounds. The measurement values measured at seven compound concentrations were analyzed using the Prism program (version 5.01, Graphpad Software, Inc.), and the IC50 value, which is an indicator of the inhibitory ability of the compound, was calculated.

EGFR del19/T790M/C797S = EGFR del19/T790M/C797S (Homo sapiens (Human), UniProt P00533, C797S/DEL746-750/T790M); assay: HTRF enzyme assay, EGFR del19/T790M/C797S mutant enzyme; type: biochemical; details: enzyme from SignalChem, 37° C. 2 hours
Experimental: as §5, §6, §7

Ba/F3 EGFR L858R = assay: CellTiter-Glo cell viability, Ba/F3 EGFR L858R; type: cell-based; details: 72 hours
Experimental: as §4, §2
as §3, with “μl” for “μL”

[1] = test system: Ba/F3 EGFR L858R/T790M/C797S; assay: CellTiter-Glo cell viability, Ba/F3 EGFR L858R/T790M/C797S; type: cell-based; details: 72 hours
Experimental: as §4, §2
as §3, with “μl” for “μL”

Ba/F3 EGFR del19/T790M = assay: CellTiter-Glo cell viability, Ba/F3 EGFR del19/T790M; type: cell-based; details: 72 hours
Experimental: as §1, §2, §3

[2] = test system: Ba/F3 EGFR del19/T790M/C797S; assay: CellTiter-Glo cell viability, Ba/F3 EGFR del19/T790M/C797S; type: cell-based; details: 72 hours
Experimental: as §1, §2, §3

Chain of EGFR del19/T790M/C797S (P00533 other isoform, or with tags, fused parts or gaps T790M/C797S/del 1-694/del 746-750 limits assumed): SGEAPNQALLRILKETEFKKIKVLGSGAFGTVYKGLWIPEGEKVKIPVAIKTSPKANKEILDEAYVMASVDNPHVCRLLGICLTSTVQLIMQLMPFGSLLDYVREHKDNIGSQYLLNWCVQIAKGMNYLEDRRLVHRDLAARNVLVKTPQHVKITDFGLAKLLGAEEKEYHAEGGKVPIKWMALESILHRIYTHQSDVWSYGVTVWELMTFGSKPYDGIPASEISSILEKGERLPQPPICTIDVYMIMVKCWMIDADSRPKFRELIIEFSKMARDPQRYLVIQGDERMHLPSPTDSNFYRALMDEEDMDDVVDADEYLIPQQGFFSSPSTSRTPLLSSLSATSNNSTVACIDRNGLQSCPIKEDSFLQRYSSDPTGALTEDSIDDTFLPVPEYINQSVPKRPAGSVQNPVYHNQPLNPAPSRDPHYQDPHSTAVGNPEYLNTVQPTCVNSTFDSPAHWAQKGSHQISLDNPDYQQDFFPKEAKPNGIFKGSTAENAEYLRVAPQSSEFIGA
Chain of EGFR del19/T790M (P00533 other isoform, or with tags, fused parts or gaps T790M/del 1-668/del 746-750 limits assumed): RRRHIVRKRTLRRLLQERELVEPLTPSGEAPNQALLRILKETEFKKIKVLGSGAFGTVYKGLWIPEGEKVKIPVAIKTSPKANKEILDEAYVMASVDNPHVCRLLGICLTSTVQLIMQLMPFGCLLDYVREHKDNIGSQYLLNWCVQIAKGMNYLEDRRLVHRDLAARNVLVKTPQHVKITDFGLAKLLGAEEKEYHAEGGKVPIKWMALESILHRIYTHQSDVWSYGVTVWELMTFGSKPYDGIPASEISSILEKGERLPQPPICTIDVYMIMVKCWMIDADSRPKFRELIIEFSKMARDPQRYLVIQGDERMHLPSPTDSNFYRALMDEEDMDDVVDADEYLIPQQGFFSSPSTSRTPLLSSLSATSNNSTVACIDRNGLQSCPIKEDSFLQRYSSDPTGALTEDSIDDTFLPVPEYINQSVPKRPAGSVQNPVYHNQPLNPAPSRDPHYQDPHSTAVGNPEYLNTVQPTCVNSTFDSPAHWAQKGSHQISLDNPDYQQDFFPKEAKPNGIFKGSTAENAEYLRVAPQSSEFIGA

IC50 (Ba/F3 EGFR del19) [nM] | IC50 (Ba/F3 EGFR L858R/T790M) [nM] | IC50 (EGFR del19/T790M) [nM] | IC50 (EGFR del19/T790M/C797S) [nM] | IC50 (Ba/F3 EGFR L858R) [nM] | IC50 [1] [nM] | IC50 (Ba/F3 EGFR del19/T790M) [nM] | IC50 [2] [nM] | SMILES
< 100 | < 100 | < 1 | < 1 | < 30 | > 100 | > 100 | > 100 | COc1cc(N2CCC(N3CCN(C)CC3)CC2)ccc1Nc1ncc(F)c(Nc2cccc3c2N(S(C)(=O)=O)CC3)n1 [Example 8, 5-fluoro-N2-(2-methoxy-4-(4-(4-methylpiperazin-1-yl)piperidin-1-yl)phenyl)-N4-(1-(methylsulfonyl)indolin-7-yl)pyrimidine-2,4-diamine]
< 30 | < 30 | < 1 | < 1 | < 30 | < 100 | < 30 | < 100 | COc1cc(N2CCC(N(C)C)CC2)ccc1Nc1ncc(Cl)c(Nc2cccc3c2N(S(C)(=O)=O)CC3)n1 [Example 1, 5-chloro-N2-(4-(4-(dimethylamino)piperidin-1-yl)-2-methoxyphenyl)-N4-(1-(methylsulfonyl)indolin-7-yl)pyrimidine-2,4-diamine]
> 100 | > 100 | 60 | 50 | < 100 | > 100 | > 100 | > 100 | COc1cc(N2CCC(N3CCN(C)CC3)CC2)ccc1Nc1ncc(C(=O)OC(C)C)c(Nc2cccc3c2N(S(C)(=O)=O)CC3)n1 [Example 10, isopropyl 2-((2-methoxy-4-(4-(4-methylpiperazin-1-yl)piperidin-1-yl)phenyl)amino)-4-((1-(methylsulfonyl)indolin-7-yl)amino)pyrimidine-5-carboxylate]
< 100 | > 100 |  |  | > 100 |  | < 100 | > 100 | COc1cc(N(C)CCN(C)C)ccc1Nc1ncc(Cl)c(Nc2cccc3c2N(S(C)(=O)=O)CC3)n1 [Example 3, 5-chloro-N2-(4-((2-(dimethylamino)ethyl)(methyl)amino)-2-methoxyphenyl)-N4-(1-(methylsulfonyl)indolin-7-yl)pyrimidine-2,4-diamine]
< 30 | < 30 | < 1 | < 1 | < 100 | > 100 | < 30 | > 100 | COc1cc(N2CCC(N3CCN(C)CC3)CC2)ccc1Nc1ncc(C(F)(F)F)c(Nc2cccc3c2N(S(C)(=O)=O)CC3)n1 [Example 9, N2-(2-methoxy-4-(4-(4-methylpiperazin-1-yl)piperidin-1-yl)phenyl)-N4-(1-(methylsulfonyl)indolin-7-yl)-5-(trifluoromethyl)pyrimidine-2,4-diamine]
< 30 | < 100 | < 1 | < 1 | < 30 | > 100 | < 100 | > 100 | COc1cc(N2CCC(N3CCN(C)CC3)CC2)ccc1Nc1ncc(C)c(Nc2cccc3c2N(S(C)(=O)=O)CC3)n1 [Example 7, N2-(2-methoxy-4-(4-(4-methylpiperazin-1-yl)piperidin-1-yl)phenyl)-5-methyl-N4-(1-(methylsulfonyl)indolin-7-yl)pyrimidine-2,4-diamine]
< 100 | < 100 | 1 | < 1 | > 100 |  | < 100 | > 100 | COc1cc(N(C)CCN(C)C)ccc1Nc1ncc(Cl)c(Nc2cccc3c2N(S(C)(=O)=O)CCC3)n1 [Example 6, 5-chloro-N2-(4-((2-(dimethylamino)ethyl)(methyl)amino)-2-methoxyphenyl)-N4-(1-(methylsulfonyl)-1,2,3,4-tetrahydroquinolin-8-yl)pyrimidine-2,4-diamine]
< 100 | < 100 | 2 | 5 | < 100 | > 100 | > 100 | > 100 | COC(=O)c1cnc(Nc2ccc(N3CCC(N4CCN(C)CC4)CC3)cc2OC)nc1Nc1cccc2c1N(S(C)(=O)=O)CC2 [Example 11, methyl 2-((2-methoxy-4-(4-(4-methylpiperazin-1-yl)piperidin-1-yl)phenyl)amino)-4-((1-(methylsulfonyl)indolin-7-yl)amino)pyrimidine-5-carboxylate]
< 30 | < 100 | < 1 | < 1 | < 100 |  | < 30 | < 30 | COc1cc(N2CCC(N(C)C)CC2)ccc1Nc1ncc(Cl)c(Nc2cccc3c2N(S(C)(=O)=O)CCC3)n1 [Example 4, 5-chloro-N2-(4-(4-(dimethylamino)piperidin-1-yl)-2-methoxyphenyl)-N4-(1-(methylsulfonyl)-1,2,3,4-tetrahydroquinolin-8-yl)pyrimidine-2,4-diamine]
